According to patent US20110269815A1, “METHODS OF REDUCING CELLULAR PROLIFERATION BY INHIBITING ACSVL3” (THE JOHNS HOPKINS UNIVERSITY, priority 2008, published 2011):
Numbered stars: 1 amine (or outer) side, 2 acyl side, 3 side chain; on linkers, the order of the positions; unused ones are H or OH. Bridge positions count the residues as written; N and C are the ends. Square brackets hold non-standard residues; d marks the D form. Peptide text beside a SMILES is read from it. I, II: the chains in the order shown. * marks the point of attachment. Actinocin(9to1) = Cc1c2oc3c(C)ccc(C(=O)[*:1])c3nc-2c(C(=O)[*:2])c(N)c1=O; NMeV = CN[C@H](C(=O)O)C(C)C; Cbz = O=C(OCc1ccccc1)*; Sar = CNCC(=O)O; CH2F = FC*

Tests used:
ACSVL3 [1] = assay: Acyl-CoA synthetase activity of control vs ACSVL3-deficient U87 cells with candidate small molecule inhibitors; assay type: biochemical, human; settings: 80 μM drug; palmitic acid substrate; preliminary studies, FIG. 14
Description: Acyl-CoA synthetase assays. Activation of [1-^14C]palmitate (C16:0) or [1-^14C]lignocerate (C24:0) (Moravek Biochemicals, Brea Calif.) to their CoA derivatives was measured in frozen/thawed cell suspensions or post-nuclear supernatants of xenograft tissue homogenates as previously described (9, 19). Assays contained 15 or 60 μg cell or tissue protein for C16:0 and C24:0 fatty acid substrates, respectively.
For this study, we examined the effects of candidate small molecule inhibitors on the acyl-CoA synthetase activity of control U87 glioblastoma cells and ACSVL3-deficient U87 cells. The 16-carbon fatty acid, palmitic acid, was used as substrate. Drugs were solubilized in dimethylsulfoxide (DMSO, 10 mM) and diluted with phosphate-buffered saline (PBS, 0.8 mM) prior to their inclusion in enzyme assays; the final concentration of drug in the assay was 80 μM. Control incubations contained the vehicle, DMSO diluted in PBS, only. The assay measures the combined enzyme activity of all acyl-CoA synthetases found in U87 cells that are capable of using palmitic acid as substrate. A specific inhibitor of ACSVL3 is one in which there is partial inhibition of total cellular enzyme activity in control U87 cells (grey bars), but not in ACSVL3-deficient U87 cells (black bars).

ACSVL3 [2] = assay: ACSVL3 expression in U373 cells with transcription or translation inhibitor, without or with HGF; assay type: cell-based, human; settings: actinomycin D 20 μg/ml, cycloheximide 5 μM; for HGF-induced increase in ACSVL3 expression: HGF 6 hours
Description: We then investigated whether the increase in ACSVL3 protein in U373 cells was due to increased transcription of the ACSVL3 gene, or increased translation of ACSVL3 mRNA. U373 cells were incubated without or with HGF for 6 hours in the absence and presence of an inhibitor of transcription, actinomycin D, or the protein synthesis (translation) inhibitor, cycloheximide. Actinomycin D (20 μg/ml) and cycloheximide (5 μM) were added to the culture medium 16 and 8 hours, respectively, prior to the addition of HGF.

ACSVL3 [3] = assay: ACSVL3 expression in U373 glioma cells treated with HGF or EGF (Western blot); assay type: cell-based, human; settings: for ACSVL3 expression: HGF 20 ng/ml or EGF 30 ng/ml, 16 hrs
Description: (§1) A. Human U87, U373, and Mayo-22 glioma cells were grown to ˜80% confluence. Cells were either untreated or incubated 16 hrs in the presence of HGF (20 ng/ml; gift from Genentech; South San Francisco Calif.) or EGF (30 ng/ml; Calbiochem/EMD; San Diego Calif.) before harvesting and Western blot analysis for ACSVL3 expression. Each lane contained 30 μg total cellular protein. Actin was detected as a loading control. The three sections were from the same Western blot; images were obtained simultaneously. B. U87 cells stably expressing constitutively active EGFR (EGFRvIII) or corresponding control U87 cells were harvested and analyzed by Western blot. Actin was detected as a loading control. C. Tumors were produced in the flanks of athymic nude mice (n=12) by s.c. injection (2 sites per mouse) of 4×10^6 U87 cells. When tumors size reached ˜300 mm^3 (day 14), animals were randomly divided into two groups of 6 mice. One group received i.p. injection (100 μg/20 g body wt) of anti-HGF mAb (L2G7) and the other group received isotype control mAb (5G8) on days 14, 16, and 18. Mice were sacrificed on day 20. Tumor homogenates (50 μg protein) were subjected to Western blot analysis for ACSVL3 expression. Actin expression was used as a loading control.
Immunohistochemistry, immunofluorescence, and Western blotting. Immunohistochemical staining for ACSVL3 and ACSBG1, and immunofluorescence analysis of ACSVL3, were performed using affinity-purified antibodies as described (9, 15). ACSVL3 was detected on Western blots with SuperSignal West Pico chemiluminescent substrate (Pierce Biotechnology, Rockford Ill.). Total and phospho-Akt (ser473) were detected with antibodies from BD Biosciences (San Jose Calif.) and Cell Signaling Technology (Danvers Mass.), respectively, and quantitated with the LiCOR Odyssey dual wavelength infrared system. Protein was determined by the method of Lowry et al. (16).
Further characterization of induction of ACSVL3 expression in U373 cells. Human U373 glioma cells have low ACSVL3 expression unless treated with hepatocyte growth factor (HGF). […]

ACSVL3 [4] = assay: ACSVL3 expression in Mayo-22 glioma cells treated with HGF or EGF (Western blot); assay type: cell-based, human; settings: Mayo 22 cells; HGF 20 ng/ml or EGF 30 ng/ml, 16 hrs
Description: as §1, with “One group received i.p. injection (100 μg/20 g body wt) of anti-HGF mAb (L2G7) and the other group received isotype control mAb (5G8) on days 14, 16, and 18. Mice were sacrificed on day 20. Tumor homogenates (50 μg protein) were subjected to Western blot analysis for ACSVL3 expression. Actin expression was used as a loading control.” left out
(§2) Immunohistochemistry, immunofluorescence, and Western blotting. […] ACSVL3 was detected on Western blots with SuperSignal West Pico chemiluminescent substrate (Pierce Biotechnology, Rockford Ill.). Total and phospho-Akt (ser473) were detected with antibodies from BD Biosciences (San Jose Calif.) and Cell Signaling Technology (Danvers Mass.), respectively, and quantitated with the LiCOR Odyssey dual wavelength infrared system. Protein was determined by the method of Lowry et al. (16).

ACSVL3 [5] = assay: ACSVL3 expression in U87 glioma cells treated with HGF or EGF (Western blot); assay type: cell-based, human; settings: HGF 20 ng/ml or EGF 30 ng/ml, 16 hrs
Description: as §1, with “One group received i.p. injection (100 μg/20 g body wt) of anti-HGF mAb (L2G7) and the other group received isotype control mAb (5G8) on days 14, 16, and 18. Mice were sacrificed on day 20. Tumor homogenates (50 μg protein) were subjected to Western blot analysis for ACSVL3 expression. Actin expression was used as a loading control.” left out
as §2

Akt = Akt signaling after HGF in control and ACSVL3 KD U87 cells (Western blot); assay type: cell-based, human; settings: HGF 20 ng/ml
Description: A & B. Effect of HGF treatment on Akt phosphorylation and stability. Control and ACSVL3-3 KD U87 cells were incubated with HGF (20 ng/ml) for the indicated time prior to analysis for total Akt and phospho-Akt levels by Western blot. A, LiCOR Odyssey images; control and KD images were obtained simultaneously. B, Quantitation of the LiCOR data. C. Effect of caspase inhibition on Akt stability. One control and two different knockdown clones produced using the ACSVL3-3 shRNA plasmid were incubated with HGF (20 ng/ml) for the indicated time in the absence or presence of the pan-caspase inhibitor, Z-VAD-FMK (50 μM), prior to analysis for total Akt and phospho-Akt levels by Western blot. […] Left, adherent growth was measured 11.5 days post-transfection as described in the legend to FIG. 4A. Right, anchorage-independent growth was measured by colony formation in soft agar on day 17 post-transfection as described in the legend to FIG. 4B. Mean±standard error is shown; statistical significance was determined by one-way ANOVA with Bonferroni's multiple comparison test. ***, p<0.001 vs. control vector; **, p<0.01 vs. control vector; n.s., p>0.05 vs. control myr-Akt.
Immunohistochemistry, immunofluorescence, and Western blotting. […] ACSVL3 was detected on Western blots with SuperSignal West Pico chemiluminescent substrate (Pierce Biotechnology, Rockford Ill.). […]

CC(CN1c2ccccc2Sc2ccccc21)N(C)C (stereo not shown) [promethazine]
inhibition of acyl-CoA synthetase activity in control vs ACSVL3-deficient U87 cells (specificity for ACSVL3) (ACSVL3 [1]): inhibit enzyme activity similarly in both control and ACSVL3-deficient U87 cells

C[C@@H]1C[C@@H]([C@H](O)CC2CC(=O)NC(=O)C2)C(=O)[C@@H](C)C1 [cycloheximide]
HGF-induced increase in ACSVL3 expression (ACSVL3 [2]): blocked the HGF-induced increase in ACSVL3 expression
ACSVL3 expression in the absence of HGF (ACSVL3 [2]): neither actinomycin D nor cycloheximide affected ACSVL3 expression

CN1CCN(CCCN2c3ccccc3Sc3ccc(C(F)(F)F)cc32)CC1 [trifluperazine]
inhibition of acyl-CoA synthetase activity in control vs ACSVL3-deficient U87 cells (specificity for ACSVL3) (ACSVL3 [1]): inhibit both control and ACSVL3-deficient cells, but show greater inhibition in control U87 cells

Cc1cc(O)c2c(c1)C(=O)c1cc(O)cc(O)c1C2=O [emodin]
inhibition of acyl-CoA synthetase activity in control vs ACSVL3-deficient U87 cells (specificity for ACSVL3) (ACSVL3 [1]): inhibit enzyme activity similarly in both control and ACSVL3-deficient U87 cells

Nc1ccc(/N=N/c2ccccc2)c(N)n1 [phenazopyridine]
inhibition of acyl-CoA synthetase activity in control vs ACSVL3-deficient U87 cells (specificity for ACSVL3) (ACSVL3 [1]): inhibit enzyme activity similarly in both control and ACSVL3-deficient U87 cells

EGF: EGFR ligand, epidermal growth factor
ACSVL3 expression (ACSVL3 [3]): increased ACSVL3 expression
ACSVL3 expression (ACSVL3 [4]): increased ACSVL3 expression
ACSVL3 expression (ACSVL3 [5]): not increased above its high basal expression levels

CN(C)CCCN1c2ccccc2Sc2ccc(C(F)(F)F)cc21 [Triflupromazine]
inhibition of acyl-CoA synthetase activity in control vs ACSVL3-deficient U87 cells (specificity for ACSVL3) (ACSVL3 [1]): exhibited specificity for ACSVL3

Cc1c2oc3c(C)ccc(C(=O)N[C@@H]4C(=O)N[C@H](C(C)C)C(=O)N5CCC[C@H]5C(=O)N(C)CC(=O)N(C)[C@@H](C(C)C)C(=O)O[C@@H]4C)c3nc-2c(C(=O)N[C@@H]2C(=O)N[C@H](C(C)C)C(=O)N3CCC[C@H]3C(=O)N(C)CC(=O)N(C)[C@@H](C(C)C)C(=O)O[C@@H]2C)c(N)c1=O [actinomycin D] (I: T[dV]P[Sar][NMeV] / II: T[dV]P[Sar][NMeV]; ester I:1-I:C, II:1-II:C; linker I:N-II:N via Actinocin(9to1))
HGF-induced increase in ACSVL3 expression (ACSVL3 [2]): blocked the HGF-induced increase in ACSVL3 expression
ACSVL3 expression in the absence of HGF (ACSVL3 [2]): neither actinomycin D nor cycloheximide affected ACSVL3 expression

OCCN1CCN(CC/C=C2/c3ccccc3Sc3ccc(C(F)(F)F)cc32)CC1 [flupenthixol]
inhibition of acyl-CoA synthetase activity in control vs ACSVL3-deficient U87 cells (specificity for ACSVL3) (ACSVL3 [1]): inhibit both control and ACSVL3-deficient cells, but show greater inhibition in control U87 cells

HGF: Hepatocyte growth factor, c-Met agonist
time course of induction of ACSVL3 protein (ACSVL3 [3]; FIG. 12): increased in U373 cells as early as 2 hours
ACSVL3 expression (ACSVL3 [3]): induce ACSVL3 expression levels
Akt phosphorylation (Ser-473) (Akt; control-transfected U87 glioma cells): increased rapidly and remained elevated for up to two hours
ACSVL3 expression (ACSVL3 [4]): induce ACSVL3 expression levels
ACSVL3 expression (ACSVL3 [5]): not increased above its high basal expression levels

O=C1NCN(c2ccccc2)C12CCN(CCCC(c1ccc(F)cc1)c1ccc(F)cc1)CC2 [fluspirilene]
inhibition of acyl-CoA synthetase activity in control vs ACSVL3-deficient U87 cells (specificity for ACSVL3) (ACSVL3 [1]): inhibit enzyme activity similarly in both control and ACSVL3-deficient U87 cells

Cbz-Val-Ala-Asp-CH2F
Akt response to HGF stimulation under caspase inhibition (Akt; ACSVL3 KD U87 cells, Z-VAD-FMK 50 μM): normalized the Akt response to HGF stimulation

OCCN1CCN(CCCN2c3ccccc3Sc3ccc(Cl)cc32)CC1 [perphenizine]
inhibition of acyl-CoA synthetase activity in control vs ACSVL3-deficient U87 cells (specificity for ACSVL3) (ACSVL3 [1]): exhibited specificity for ACSVL3

CN(C)CCCN1c2ccccc2Sc2ccc(Cl)cc21 [chlorpromazine]
inhibition of acyl-CoA synthetase activity in control vs ACSVL3-deficient U87 cells (specificity for ACSVL3) (ACSVL3 [1]): exhibited specificity for ACSVL3
